Measurements published in patent US10179782B2, “Substituted sulfonamide compounds” (Genentech, Inc., priority 2016, dated 2019).
pIC50: −log10 of the molar value.

Target: T1, human TRPA1 (Homo sapiens, UniProt O75762)
T1 construct: expressed in transfected cells; host or cells: CHO cells
Assay: TRPA1 FLIPR Tetra calcium influx assay in CHO cells (block of cinnamaldehyde-induced calcium influx)
Type: cell-based
Details: Table 2; CHO cells expressing TRPA1; agonist cinnamaldehyde 75 uM; 20 min compound incubation; Hill coefficient fixed to 1.5; read-out: hTRPA1 CHO Ca2+ AUC EVO (IC50)
How it was run: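 IC50s were derived from a Hill fit with n fixed at 1.5, using inhibition of FLIPR Tetra calcium signals in dye-loaded TRPA1-CHO cells. Cells sat with compound 20 min at room temperature in HBSS with 20 mM HEPES (pH 7.4) and 0.02% BSA, then were challenged with cinnamaldehyde near EC80: 75 µM human, 45 µM rat.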

T1 sequence (O75762 whole entry): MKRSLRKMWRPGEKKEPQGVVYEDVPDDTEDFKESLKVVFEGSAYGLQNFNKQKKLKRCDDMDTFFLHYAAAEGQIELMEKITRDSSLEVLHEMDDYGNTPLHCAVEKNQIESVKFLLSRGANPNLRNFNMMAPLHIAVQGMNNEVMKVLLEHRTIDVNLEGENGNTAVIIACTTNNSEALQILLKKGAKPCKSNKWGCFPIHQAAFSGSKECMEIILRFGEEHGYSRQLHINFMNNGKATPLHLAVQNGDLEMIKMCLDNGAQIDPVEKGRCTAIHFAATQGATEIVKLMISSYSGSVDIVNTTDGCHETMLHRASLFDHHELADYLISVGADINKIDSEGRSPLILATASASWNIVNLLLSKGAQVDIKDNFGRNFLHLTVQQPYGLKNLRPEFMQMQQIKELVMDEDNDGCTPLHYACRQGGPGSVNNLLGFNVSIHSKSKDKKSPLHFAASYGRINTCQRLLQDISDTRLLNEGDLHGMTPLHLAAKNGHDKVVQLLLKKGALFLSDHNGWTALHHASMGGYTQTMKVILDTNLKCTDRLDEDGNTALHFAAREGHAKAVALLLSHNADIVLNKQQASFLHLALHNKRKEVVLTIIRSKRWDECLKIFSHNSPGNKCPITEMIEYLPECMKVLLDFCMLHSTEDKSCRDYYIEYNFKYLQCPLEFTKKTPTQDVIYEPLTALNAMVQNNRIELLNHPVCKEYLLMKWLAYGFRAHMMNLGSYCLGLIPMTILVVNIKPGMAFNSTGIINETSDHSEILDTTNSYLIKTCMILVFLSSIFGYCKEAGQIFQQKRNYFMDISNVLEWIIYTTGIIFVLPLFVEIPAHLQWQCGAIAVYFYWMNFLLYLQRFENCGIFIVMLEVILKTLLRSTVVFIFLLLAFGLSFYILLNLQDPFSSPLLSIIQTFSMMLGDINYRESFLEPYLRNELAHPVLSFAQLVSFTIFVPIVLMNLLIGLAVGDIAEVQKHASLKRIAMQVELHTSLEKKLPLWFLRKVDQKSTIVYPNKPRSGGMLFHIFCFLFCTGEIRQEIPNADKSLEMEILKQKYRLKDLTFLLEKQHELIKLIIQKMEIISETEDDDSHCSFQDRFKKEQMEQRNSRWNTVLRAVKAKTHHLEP

Row | Compound | pIC50
1 | C[C@H]1CCC[C@@H](C(=O)NCc2cc(-c3cnc(C(F)(F)F)nc3)ncc2F)N1S(=O)(=O)c1ccc(F)cc1 [Example 58, (2S,6S)-1-(4-fluorophenyl)sulfonyl-N-[[5-fluoro-2-[2-(trifluoromethyl)pyrimidin-5-yl]-4-pyridyl]methyl]-6-methyl-piperidine-2-carboxamide] | 7.13
2 | O=C(NCc1cc(-c2ccc(S(F)(F)(F)(F)F)cc2)ncc1F)[C@@H]1C[C@@H](F)CN1S(=O)(=O)c1ccc(F)cc1 [Example 59, (2S,4R)-4-fluoro-N-[[5-fluoro-2-[4-(pentafluoro-sulfanyl)phenyl]-4-pyridyl]methyl]-1-(4-fluorophenyl)sulfonyl-pyrrolidine-2-carboxamide] | 6.79
3 | CC(C)Oc1nc(CNC(=O)[C@@H]2C[C@@H](F)CN2S(=O)(=O)c2ccc(F)cc2)cc(-c2cnc(C(F)(F)F)nc2)n1 [Example 60, (2S,4R)-4-fluoro-1-(4-fluorophenyl)sulfonyl-N-[[2-isopropoxy-6-[2-(trifluoromethyl)pyrimidin-5-yl]pyrimidin-4-yl]methyl]pyrrolidine-2-carboxamide] | 7.08
4 | O=C(NCc1cc(-c2cnc(C(F)(F)F)nc2)ncc1F)[C@@H]1CC[C@H](C(F)(F)F)N1S(=O)(=O)c1ccc(F)cc1 [Example 61, (2S,5R)-1-(4-fluorophenyl)sulfonyl-N-[[5-fluoro-2-[2-(trifluoromethyl)pyrimidin-5-yl]-4-pyridyl]methyl]-5-(trifluoromethyl)pyrrolidine-2-carboxamide] | 7.67
5 | C[C@H]1[C@H](F)C[C@@H](C(=O)NCc2cn(-c3cnc(C(F)(F)F)nc3)nc2Cl)N1S(=O)(=O)c1ccc(F)cc1 [Example 62, (2S,4R,5S)-N-[[3-chloro-1-[2-(trifluoromethyl)pyrimidin-5-yl]pyrazol-4-yl]methyl]-4-fluoro-1-(4-fluorophenyl)sulfonyl-5-methyl-pyrrolidine-2-carboxamide] | 7.24
6 | O=C(NCc1cc(-c2cnc(C(F)(F)F)nc2)ncc1Cl)[C@@H]1[C@H]2C[C@H]2CN1S(=O)(=O)c1ccc(F)cc1 [Example 63, (1S,2S,5R)-N-[[5-chloro-2-[2-(trifluoromethyl)pyrimidin-5-yl]-4-pyridyl]methyl]-3-(4-fluorophenyl)sulfonyl-3-azabicyclo[3.1.0]hexane-2-carboxamide] | 8.21
7 | N#Cc1cc(F)c(-c2cnc(C(F)(F)F)nc2)cc1CNC(=O)[C@@H]1C[C@@H](F)CN1S(=O)(=O)c1ccc(F)cc1 [Example 64, (2S,4R)-N-[[2-cyano-4-fluoro-5-[2-(trifluoromethyl)pyrimidin-5-yl]phenyl]methyl]-4-fluoro-1-(4-fluorophenyl)sulfonyl-pyrrolidine-2-carboxamide] | 7.35
8 | O=C(NCc1cc(-c2cnc(C(F)(F)F)nc2)ncn1)[C@@H]1[C@H]2C[C@H]2CN1S(=O)(=O)c1ccc(F)cc1 [Example 65, (1S,2S,5R)-3-(4-fluorophenyl)sulfonyl-N-[[6-[2-(trifluoromethyl)pyrimidin-5-yl]pyrimidin-4-yl]methyl]-3-azabicyclo[3.1.0]hexane-2-carboxamide] | 7.19
9 | CCc1cc(CNC(=O)[C@@H]2C[C@@H](F)CN2S(=O)(=O)c2ccc(F)cc2)cc(-c2cnc(C(F)(F)F)nc2)n1 [Example 66, (2S,4R)-N-[[2-ethyl-6-[2-(trifluoromethyl)pyrimidin-5-yl]-4-pyridyl]methyl]-4-fluoro-1-(4-fluorophenyl)sulfonyl-pyrrolidine-2-carboxamide] | 7.11
10 | O=C(NCc1cc(-c2cnc(C(F)(F)F)nc2)nc(C2CC2)c1)[C@@H]1C[C@@H](F)CN1S(=O)(=O)c1ccc(F)cc1 [Example 67, (2S,4R)-N-[[2-cyclopropyl-6-[2-(trifluoromethyl)pyrimidin-5-yl]-4-pyridyl]methyl]-4-fluoro-1-(4-fluorophenyl)sulfonyl-pyrrolidine-2-carboxamide] | 7.19
11 | O=C(NCc1ccc(F)c(-c2cnc(C(F)(F)F)nc2)c1)[C@@H]1[C@@H]2[C@H](CN1S(=O)(=O)c1ccc(F)cc1)C2(F)F [Example 69, (1R,4S,5S)-6,6-difluoro-3-(4-fluorophenyl)sulfonyl-N-[[4-fluoro-3-[2-(trifluoromethyl)pyrimidin-5-yl]phenyl]methyl]-3-azabicyclo[3.1.0]hexane-4-carboxamide] | 7.34
12 | O=C(NCc1cc(-c2cnc(C(F)(F)F)nc2)ncc1F)[C@@H]1[C@@H]2[C@H](CN1S(=O)(=O)c1ccc(F)cc1)C2(F)F [Example 71, (1S,2S,5R)-6,6-difluoro-N-((5-fluoro-2-(2-(trifluoromethyl)pyrimidin-5-yl)pyridin-4-yl)methyl)-3-((4-fluorophenyl)sulfonyl)-3-azabicyclo[3.1.0]hexane-2-carboxamide] | 7.34
13 | CC1(C)[C@@H]2[C@@H](C(=O)NCc3cc(-c4cnc(C(F)(F)F)nc4)ncc3F)N(S(=O)(=O)c3ccc(F)cc3)C[C@@H]21 [Example 72, (1S,4S,5R)-3-(4-fluorophenyl)sulfonyl-N-[[5-fluoro-2-[2-(trifluoromethyl)pyrimidin-5-yl]-4-pyridyl]methyl]-6,6-dimethyl-3-azabicyclo[3.1.0]hexane-4-carboxamide] | 7.83
14 | O=C(NCc1cc(-c2cnc(C(F)(F)F)nc2)nc(C2CC2)n1)[C@@H]1C[C@@H](F)CN1S(=O)(=O)c1ccc(F)cc1 [Example 73, (2S,4R)-N-[[2-cyclopropyl-6-[2-(trifluoromethyl)pyrimidin-5-yl]pyrimidin-4-yl]methyl]-4-fluoro-1-(4-fluorophenyl)sulfonyl-pyrrolidine-2-carboxamide] | 7.25
15 | O=C(NCc1cc(-c2cnc(C(F)(F)F)nc2)c(F)cc1F)[C@@H]1C[C@@H](F)CN1S(=O)(=O)c1ccc(F)cc1 [Example 74, (2S,4R)-N-[[2,4-difluoro-5-[2-(trifluoromethyl)pyrimidin-5-yl]phenyl]methyl]-4-fluoro-1-(4-fluorophenyl)sulfonyl-pyrrolidine-2-carboxamide] | 7.19

Other lines, results leading:

Row | pIC50 | Compound
16 | 7.18 | C[C@@]1(F)C[C@@H](C(=O)NCc2cc(Cl)nc(-c3cnc(C(F)(F)F)nc3)c2)N(S(=O)(=O)c2ccc(F)cc2)C1 [Example 75, (2S,4R)-N-[[2-chloro-6-[2-(trifluoromethyl)pyrimidin-5-yl]-4-pyridyl]methyl]-4-fluoro-1-(4-fluorophenyl)sulfonyl-4-methyl-pyrrolidine-2-carboxamide]
17 | 7.41 | O=C(NCc1cc(-c2cnc(C(F)(F)F)nc2)cc(F)c1F)[C@@H]1C[C@@H](F)CN1S(=O)(=O)c1ccc(F)cc1 [Example 76, (2S,4R)-N-[[2,3-difluoro-5-[2-(trifluoromethyl)pyrimidin-5-yl]phenyl]methyl]-4-fluoro-1-(4-fluorophenyl)sulfonyl-pyrrolidine-2-carboxamide]
18 | 7.13 | O=C(NCc1ccc(F)c(-c2cnc(C(F)(F)F)s2)c1)[C@@H]1C[C@@H](F)CN1S(=O)(=O)c1ccc(F)cc1 [Example 77, (2S,4R)-4-fluoro-1-(4-fluorophenyl)sulfonyl-N-[[4-fluoro-3-[2-(trifluoromethyl)thiazol-5-yl]phenyl]methyl]pyrrolidine-2-carboxamide]
19 | 7.63 | CC1(C)[C@@H]2[C@@H](C(=O)NCc3ccc(F)c(-c4cnc(C(F)(F)F)nc4)c3)N(S(=O)(=O)c3ccc(F)cc3)C[C@@H]21 [Example 78, (1S,4S,5R)-3-(4-fluorophenyl)sulfonyl-N-[[4-fluoro-3-[2-(trifluoromethyl)pyrimidin-5-yl]phenyl]methyl]-6,6-dimethyl-3-azabicyclo[3.1.0]hexane-4-carboxamide]
20 | 7.01 | COC[C@H]1CC[C@@H](C(=O)NCc2cc(-c3cnc(C(F)(F)F)nc3)ncc2F)N1S(=O)(=O)c1ccc(F)cc1 [Example 80, (2S,5R)-N-((5-fluoro-2-(2-(trifluoromethyl)pyrimidin-5-yl)pyridin-4-yl)methyl)-1-((4-fluorophenyl)sulfonyl)-5-(methoxymethyl)pyrrolidine-2-carboxamide]
21 | 7.26 | C[C@H]1[C@H](F)C[C@@H](C(=O)NCc2cc(N3CC(OC(F)(F)F)C3)nc(C3CC3)n2)N1S(=O)(=O)c1ccc(F)cc1 [Example 81, (2S,4R,5S)-N-[[2-cyclopropyl-6-[3-(trifluoromethoxy)azetidin-1-yl]pyrimidin-4-yl]methyl]-4-fluoro-1-(4-fluorophenyl)sulfonyl-5-methyl-pyrrolidine-2-carboxamide]
22 | 6.78 | C[C@H]1[C@H](F)C[C@@H](C(=O)NCc2cc(OCCOC(F)(F)F)c(F)cn2)N1S(=O)(=O)c1ccc(F)cc1 [Example 82, (2S,4R,5S)-4-fluoro-1-(4-fluorophenyl)sulfonyl-N-[[5-fluoro-4-[2-(trifluoromethoxy)ethoxy]-2-pyridyl]methyl]-5-methyl-pyrrolidine-2-carboxamide]
23 | 6.83 | C[C@H]1[C@H](F)C[C@@H](C(=O)NCc2cc(OCC3(C(F)(F)F)CC3)nc(C3CC3)n2)N1S(=O)(=O)c1ccc(F)cc1 [Example 83, (2S,4R,5S)-N-[[2-cyclopropyl-6-[[1-(trifluoromethyl)cyclopropyl]methoxy]pyrimidin-4-yl]methyl]-4-fluoro-1-(4-fluorophenyl)sulfonyl-5-methyl-pyrrolidine-2-carboxamide]
24 | 7.19 | C[C@H]1[C@H](C#N)C[C@@H](C(=O)NCc2cc(-c3cnc(C(F)(F)F)nc3)ncc2F)N1S(=O)(=O)c1ccc(F)cc1 [Example 84, (2S,4R,5S)-4-cyano-1-(4-fluorophenyl)sulfonyl-N-[[5-fluoro-2-[2-(trifluoromethyl)pyrimidin-5-yl]-4-pyridyl]methyl]-5-methyl-pyrrolidine-2-carboxamide]
25 | 7.47 | C[C@H]1[C@H](F)C[C@@H](C(=O)NCc2cc(-c3cnc(C(F)(F)F)s3)c(F)cn2)N1S(=O)(=O)c1ccc(F)cc1 [Example 85, (2S,4R,5S)-4-fluoro-1-(4-fluorophenyl)sulfonyl-N-[[5-fluoro-4-[2-(trifluoromethyl)thiazol-5-yl]-2-pyridyl]methyl]-5-methyl-pyrrolidine-2-carboxamide]
